From the supplement of paper PMC10307832

Legend:
Test in all cases: relative viability (nuclei count vs DMSO), 5 days (fraction); higher = more cells survive
[1] = compound: C#Cc1cccc(Nc2ncnc3cc(OCCOC)c(OCCOC)cc23)c1 [Erlotinib] + CC(C)C[C@H](NC(=O)[C@H](Cc1ccccc1)NC(=O)c1cnccn1)B(O)O [Bortezomib] (partner 0.002 µM)
Outline: (§1)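 After 5 days of treatment, lung cancer cells in 1536-well plates were fixed and stained in a single step (final 0.05% Triton X-100, 1% formaldehyde, 1 ug/ml Hoechst) and their nuclei counted on 4× images. Treatment had been applied by pin tool the day after seeding as one drug alone or as a fixed anchor-drug dose with five library-drug doses (not always all listed) in √10 steps. Relative viability is the nuclei count of treated wells divided by that of vehicle wells, and values are medians of duplicate plates.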

[2] = compound: C#Cc1cccc(Nc2ncnc3cc(OCCOC)c(OCCOC)cc23)c1 [Erlotinib] + COc1cccc2cc(-c3nc([C@H]4CC[C@H](C(=O)O)CC4)n4ncnc(N)c34)[nH]c12 [OSI-027] (partner 0.5 µM)
Outline: as §1

[3] = compound: C#Cc1cccc(Nc2ncnc3cc(OCCOC)c(OCCOC)cc23)c1 [Erlotinib] + Nc1nc2[nH]cc(CCc3ccc(C(=O)N[C@@H](CCC(=O)O)C(=O)O)cc3)c2c(=O)[nH]1 [Pemetrexed] (partner 0.2 µM)
Outline: as §1

[4] = compound: O=C(Nc1c[nH]nc1-c1nc2ccc(CN3CCOCC3)cc2[nH]1)NC1CC1 [AT9283] + CCNC(=O)c1noc(-c2cc(C(C)C)c(O)cc2O)c1-c1ccc(CN2CCOCC2)cc1 [Luminespib] (partner 0.01 µM)
Outline: as §1

[5] = compound: O=C(Nc1c[nH]nc1-c1nc2ccc(CN3CCOCC3)cc2[nH]1)NC1CC1 [AT9283] + Cc1nc(Nc2ncc(C(=O)Nc3c(C)cccc3Cl)s2)cc(N2CCN(CCO)CC2)n1 [Dasatinib] (partner 0.075 µM)
Outline: as §1

Row | Cell Line | relative viability ([1]; first compound 0.02 µM) | relative viability ([1]; first compound 0.2 µM) | relative viability ([1]; first compound 0.6325 µM) | relative viability ([1]; first compound 2 µM) | relative viability ([2]; first compound 0.2 µM) | relative viability ([2]; first compound 0.6325 µM) | relative viability ([2]; first compound 2 µM) | relative viability ([3]; first compound 0.02 µM) | relative viability ([3]; first compound 0.2 µM) | relative viability ([3]; first compound 0.6325 µM) | relative viability ([3]; first compound 2 µM) | relative viability ([4]; first compound 0.003 µM) | relative viability ([4]; first compound 0.03 µM) | relative viability ([4]; first compound 0.09487 µM) | relative viability ([4]; first compound 0.3 µM) | relative viability ([5]; first compound 0.003 µM) | relative viability ([5]; first compound 0.03 µM) | relative viability ([5]; first compound 0.09487 µM) | relative viability ([5]; first compound 0.3 µM) | relative viability ([2]; first compound 0.02 µM)
1 | NCI-H460 | 1.09 | 1.12 | 1.52 | 1.09 | 0.547 | 0.469 | 0.217 | 0.0628 | 0.0521 | 0.0611 | 0.0588 | 0.0366 | 0.041 | 0.0309 | 0.0299 | 0.395 | 0.495 | 0.265 | 0.0688 | –
2 | HCC-44 | 0.99 | – | 0.982 | 0.899 | 0.571 | 0.412 | 0.435 | 0.682 | 0.724 | 0.662 | 0.639 | 1.04 | 1.19 | 0.426 | 0.319 | – | – | – | – | 0.505
3 | NCI-H2087 | 1 | 1.12 | 0.804 | 0.768 | – | 0.533 | 0.384 | 0.753 | 0.704 | 0.728 | 0.701 | 0.163 | 0.17 | 0.15 | 0.139 | 0.765 | 0.309 | 0.122 | 0.0986 | 0.615
4 | UMC-11 | 0.934 | 0.837 | 0.738 | 0.586 | 0.412 | 0.492 | 0.424 | 0.759 | 0.746 | 0.851 | 0.668 | 1.05 | 0.161 | 0.16 | 0.165 | 0.453 | 0.128 | 0.139 | 0.154 | –
5 | NCI-H1355 | 1.14 | 1.1 | 1.24 | 0.992 | 0.387 | 0.325 | 0.296 | 1.06 | 0.995 | 1.03 | – | 0.6 | 0.702 | 0.375 | 0.239 | 0.634 | 0.727 | 0.296 | 0.273 | 0.382
6 | H3255 | 0.99 | 0.758 | 0.244 | 0.179 | 0.345 | 0.207 | 0.202 | 0.528 | 0.387 | 0.383 | 0.233 | 0.713 | 0.905 | 0.969 | 0.254 | 0.323 | 0.316 | 0.331 | 0.235 | 0.638
7 | NCI-H2085 | 1.04 | 0.979 | 0.889 | 0.766 | 0.448 | 0.349 | 0.245 | 0.867 | 0.695 | 0.716 | 0.474 | 0.585 | 0.477 | 0.403 | 0.341 | 0.231 | 0.238 | 0.224 | 0.2 | 0.787
8 | IA-LM | 0.833 | – | 0.977 | 0.86 | – | – | – | – | – | – | – | – | – | – | – | – | – | – | – | –
9 | LCLC-103H | 1.16 | 1.2 | 1.1 | 0.992 | 0.469 | 0.43 | 0.417 | 0.502 | 0.449 | 0.476 | 0.45 | 0.829 | 0.755 | 0.313 | 0.304 | 0.433 | 0.486 | 0.428 | 0.296 | 0.537
10 | NCI-H2405 | 1.12 | 1.03 | 0.998 | 0.938 | – | 0.614 | 0.591 | 0.893 | 1.1 | 1.06 | 1.09 | 0.662 | 0.625 | 0.352 | 0.331 | 0.177 | 0.185 | 0.132 | 0.107 | 0.701
11 | NCI-H1666 | 0.864 | 0.74 | 0.766 | 0.615 | 0.741 | 0.624 | 0.565 | 0.81 | 0.693 | – | 0.753 | 1.03 | 0.726 | 0.557 | 0.499 | 0.866 | 0.682 | 0.574 | 0.431 | 0.83
12 | COR-L 105 | 0.828 | 0.342 | 0.407 | 0.335 | 0.262 | 0.365 | 0.27 | 0.967 | 0.835 | 0.535 | 0.352 | 1.02 | 0.334 | 0.401 | 0.33 | 0.327 | 0.181 | 0.197 | 0.185 | 0.595
13 | ABC-1 | 0.25 | 0.355 | 0.328 | 0.287 | 0.386 | 0.361 | 0.346 | – | – | – | – | 0.579 | 0.246 | 0.275 | 0.189 | 0.498 | 0.178 | 0.196 | 0.207 | 0.582
14 | EPLC-272H | – | 0.875 | 0.989 | 0.828 | 0.304 | 0.26 | 0.196 | 0.385 | 0.329 | 0.29 | 0.371 | 0.332 | 0.246 | 0.133 | 0.149 | 0.342 | 0.307 | 0.106 | 0.103 | 0.342
